Test results taken from patent US20250179103A1, “6-OXODECAHYDROPYRROLO[1,2-A][1,5]DIAZOCINE AND 6-OXODECAHYDRO-4H-PYRROLO[2,1-D][1,5]THIAZOCINE DERIVATIVES AS STAT3 AND STAT6 MODULATORS FOR THE TREATMENT OF CANCER AND INFLAMMATORY CONDITIONS” (Recludix Pharma, Inc., priority 2022, published 2025).

How the values were obtained:
[1] = biological target: T1, Recombinant STAT3 protein (STAT3(G127-I722)) (Homo sapiens, UniProt P40763); experiment: STAT3 Fluorescence Polarization (FP) Assay; format: binding; conditions: STAT3(G127-I722) 25 nM, probe 5-FAM-GpYLPQTV-NH2 2 nM, 45-minute incubation
T1 construct: Recombinant STAT3 protein (STAT3(G127-I722))
Description: STAT3 Fluorescence Polarization (FP) Assay
An FP assay was developed to determine IC50 values for test substances. Recombinant STAT3 protein (STAT3(G127-I722)) at 25 nM was combined with a fluorescently labeled, phosphotyrosine peptide probe (5-FAM-GpYLPQTV-NH2) at 2 nM in FP buffer (10 mM HEPES pH 7.4, 50 mM NaCl, 1 mM EDTA, 0.05% Tween 20.2 mM DTT). 50 μL of STAT3-probe mixture was added to serial diluted compounds in black, 96-well plates (Greiner BioOne 655076) to a final concentration of 1% DMSO. Reaction components were mixed, and FP was measured after 45-minute incubation at room temperature using a Tecan Spark multimode plate reader. FP signal (mP) was plotted against the log concentration of the test substances and IC50 values were calculated by nonlinear regression analysis using GraphPad Prism software. For STAT3 FP assay, A=≤100 nM; B=>100-1000 nM; C=>1-10 μM; and D=>10 μM.

[2] = biological target: T2, Recombinant STAT6 protein (STAT6(W123-T658)) (Homo sapiens, UniProt P42226); experiment: STAT6 Fluorescence Polarization (FP) Assay; format: binding; conditions: STAT6(W123-T658) 250 nM, probe 5-FAM-ApYKPFQDLI-NH2 2 nM, 45-minute incubation
T2 construct: Recombinant STAT6 protein (STAT6(W123-T658))
T2 sequence (P42226 123-658): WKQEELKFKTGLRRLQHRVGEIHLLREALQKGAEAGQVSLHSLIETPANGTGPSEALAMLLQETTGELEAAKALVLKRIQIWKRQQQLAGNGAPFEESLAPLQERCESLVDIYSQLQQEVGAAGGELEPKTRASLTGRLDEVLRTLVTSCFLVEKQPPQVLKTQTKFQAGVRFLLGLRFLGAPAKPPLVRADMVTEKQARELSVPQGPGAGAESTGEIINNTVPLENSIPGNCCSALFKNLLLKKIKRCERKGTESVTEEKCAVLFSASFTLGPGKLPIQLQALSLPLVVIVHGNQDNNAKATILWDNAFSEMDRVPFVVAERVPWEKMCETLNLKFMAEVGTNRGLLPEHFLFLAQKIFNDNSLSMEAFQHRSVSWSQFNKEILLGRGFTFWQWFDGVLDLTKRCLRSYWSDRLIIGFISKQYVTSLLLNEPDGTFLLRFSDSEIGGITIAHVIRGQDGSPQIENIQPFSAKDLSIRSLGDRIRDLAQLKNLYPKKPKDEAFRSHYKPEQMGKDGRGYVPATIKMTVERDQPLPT
Description: STAT6 Fluorescence Polarization (FP) Assay
An FP assay was developed to determine IC50 values for test substances. Recombinant STAT6 protein (STAT6(W123-T658)) at 250 nM was combined with a fluorescently labeled, phosphotyrosine peptide probe (5-FAM-ApYKPFQDLI-NH2) at 2 nM in FP buffer (10 mM HEPES pH 7.4, 50 mM NaCl, 1 mM EDTA, 0.05% Tween 20.2 mM DTT). 50 μL of STAT6-probe mixture was added to serial diluted compounds in black, 96-well plates (Greiner BioOne 655076) to a final concentration of 1% DMSO. Reaction components were mixed, and FP was measured after 45-minute incubation at room temperature using a Tecan Spark multimode plate reader. FP signal (mP) was plotted against the log concentration of the test substances and IC50 values were calculated by nonlinear regression analysis using GraphPad Prism software. For STAT6 FP assay, A=≤300 nM; B=>300-3000 nM; C=>3-30 μM; and D=>30 μM.

T1 sequence (P40763 127-722): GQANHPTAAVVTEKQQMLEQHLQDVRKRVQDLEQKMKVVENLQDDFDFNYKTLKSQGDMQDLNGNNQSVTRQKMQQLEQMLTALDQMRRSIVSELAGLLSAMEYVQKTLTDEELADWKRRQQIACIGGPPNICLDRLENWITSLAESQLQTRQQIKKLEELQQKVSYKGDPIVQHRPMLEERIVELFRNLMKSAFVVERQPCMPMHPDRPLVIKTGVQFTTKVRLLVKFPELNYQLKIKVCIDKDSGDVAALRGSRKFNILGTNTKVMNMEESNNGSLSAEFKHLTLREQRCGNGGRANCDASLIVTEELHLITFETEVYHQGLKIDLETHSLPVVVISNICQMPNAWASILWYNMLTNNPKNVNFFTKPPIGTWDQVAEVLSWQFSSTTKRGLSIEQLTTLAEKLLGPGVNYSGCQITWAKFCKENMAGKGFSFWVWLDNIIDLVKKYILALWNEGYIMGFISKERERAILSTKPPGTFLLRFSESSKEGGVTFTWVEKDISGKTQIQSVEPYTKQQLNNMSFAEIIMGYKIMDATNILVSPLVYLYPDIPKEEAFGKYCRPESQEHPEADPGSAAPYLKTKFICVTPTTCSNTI

| Structure (SMILES) | IC50 [1] [nM] | IC50 [2] [nM] |
| --- | --- | --- |
| CC(=O)N1CCC(NC(=O)c2ccc3ccc(C(F)(F)P(=O)(O)O)cc3c2)C(=O)N2C(CCC2C(=O)N2CC(C#N)C(c3ccccc3)C2)C1 (mixture of isomers) [Compound 4, ((7-(((5S,8S,10aR)-2-acetyl-8-((rel-trans)-3-cyano-4-phenylpyrrolidine-1-carbonyl)-6-oxodecahydropyrrolo[1,2-a][1,4]diazocin-5-yl)carbamoyl)naphthalen-2-yl)difluoromethyl)phosphonic Acid] | 1000 to 10000 | ≤ 300 |
| N#CC1CN(C(=O)C2CCC3CCN(C(=O)OCc4ccccc4)CC(NC(=O)c4cc5cc(C(F)(F)P(=O)(O)O)ccc5s4)C(=O)N32)CC1c1ccccc1 (mixture of isomers) [Compound 9, ((2-(((5S,8S,10aR)-3-((benzyloxy)carbonyl)-8-((rel-trans)-3-cyano-4-phenylpyrrolidine-1-carbonyl)-6-oxodecahydropyrrolo[1,2-a][1,5]diazocin-5-yl)carbamoyl)benzo[b]thiophen-5-yl)difluoromethyl)phosphonic acid] | 100 to 1000 | ≤ 300 |
| N#CC1CN(C(=O)C2CCC3CCNCC(NC(=O)c4cc5cc(C(F)(F)P(=O)(O)O)ccc5s4)C(=O)N32)CC1c1ccccc1 (mixture of isomers) [Compound 10, ((2-(((5S,8S,10aR)-8-((rel-trans)-3-cyano-4-phenylpyrrolidine-1-carbonyl)-6-oxodecahydropyrrolo[1,2-a][1,5]diazocin-5-yl)carbamoyl)benzo[b]thiophen-5-yl)difluoromethyl)phosphonic Acid] | 1000 to 10000 | ≤ 300 |
| N#CC1CN(C(=O)C2CCC3CNCCC(NC(=O)c4ccc5ccc(C(F)(F)P(=O)(O)O)cc5c4)C(=O)N32)CC1c1ccccc1 (mixture of isomers) [Compound 211, ((7-(((5S,8S,10aR)-8-((rel-trans)-3-cyano-4-phenylpyrrolidine-1-carbonyl)-6-oxodecahydropyrrolo[1,2-a][1,4]diazocin-5-yl)carbamoyl)naphthalen-2-yl)difluoromethyl)phosphonic acid] | 1000 to 10000 | ≤ 300 |
| CC(=O)N1CC[C@H]2CC[C@@H](C(=O)N3C[C@@H](O)[C@H](n4ccnn4)C3)N2C(=O)[C@@H](NC(=O)c2ccc3ccc(C(F)(F)P(=O)(O)O)cc3c2)C1 (relative stereo) [Compound 5, ((7-(((5S,8S,10aR)-3-acetyl-8-((3R,4R)-3-hydroxy-4-(1H-1,2,3-triazol-1-yl)pyrrolidine-1-carbonyl)-6-oxodecahydropyrrolo[1,2-a][1,5]diazocin-5-yl)carbamoyl)naphthalen-2-yl)difluoromethyl)phosphonic Acid] | 1000 to 10000 | 300 to 3000 |
| CC(=O)N1CC[C@H]2CC[C@@H](C(=O)N3C[C@H](c4ccccc4)[C@@H](O)C3)N2C(=O)[C@@H](NC(=O)c2cc3cc(C(F)(F)P(=O)(O)O)ccc3s2)C1 (relative stereo) [Compound 60, ((2-(((5S,8S,10aR)-3-acetyl-8-((rel-trans)-3-hydroxy-4-phenylpyrrolidine-1-carbonyl)-6-oxodecahydropyrrolo[1,2-a][1,5]diazocin-5-yl)carbamoyl)benzo[b]thiophen-5-yl)difluoromethyl)phosphonic acid] | 1000 to 10000 | ≤ 300 |
| CC(=O)N1CC[C@H]2CC[C@@H](C(=O)N3CC(c4cn[nH]c4)[C@@H](C#N)C3)N2C(=O)[C@@H](NC(=O)c2cc3cc(C(F)(F)P(=O)(O)O)ccc3s2)C1 (relative stereo) [Compound 141, ((2-(((5S,8S,10aR)-3-acetyl-8-((rel-trans)-3-cyano-4-(1H-pyrazol-4-yl)pyrrolidine-1-carbonyl)-6-oxodecahydropyrrolo[1,2-a][1,5]diazocin-5-yl)carbamoyl)benzo[b]thiophen-5-yl)difluoromethyl)phosphonic acid] | 1000 to 10000 | 300 to 3000 |
| CC(=O)N1CC[C@H]2CC[C@@H](C(=O)N3CC(c4cc(F)cc(F)c4)[C@@H](C#N)C3)N2C(=O)[C@@H](NC(=O)c2cc3cc(C(F)(F)P(=O)(O)O)ccc3s2)C1 (relative stereo) [Compound 142, ((2-(((5S,8S,10aR)-3-acetyl-8-((rel-trans)-3-cyano-4-(3,5-difluorophenyl)pyrrolidine-1-carbonyl)-6-oxodecahydropyrrolo[1,2-a][1,5]diazocin-5-yl)carbamoyl)benzo[b]thiophen-5-yl)difluoromethyl)phosphonic acid] | 1000 to 10000 | ≤ 300 |
| CC(=O)N1CC[C@H]2CC[C@@H](C(=O)N3CC(c4ccccc4)[C@@H](c4ccccc4)C3)N2C(=O)[C@@H](NC(=O)c2cc3cc(C(F)(F)P(=O)(O)O)ccc3s2)C1 (relative stereo) [Compound 143, ((2-(((5S,8S,10aR)-3-acetyl-8-((rel-trans)-3,4-diphenylpyrrolidine-1-carbonyl)-6-oxodecahydropyrrolo[1,2-a][1,5]diazocin-5-yl)carbamoyl)benzo[b]thiophen-5-yl)difluoromethyl)phosphonic acid] | 1000 to 10000 | ≤ 300 |
| COc1ccccc1C1CN(C(=O)[C@@H]2CC[C@@H]3CCN(C(C)=O)C[C@H](NC(=O)c4cc5cc(C(F)(F)P(=O)(O)O)ccc5s4)C(=O)N32)C[C@@H]1C#N (relative stereo) [Compound 144, ((2-(((5S,8S,10aR)-3-acetyl-8-((rel-trans)-3-cyano-4-(2-methoxyphenyl)pyrrolidine-1-carbonyl)-6-oxodecahydropyrrolo[1,2-a][1,5]diazocin-5-yl)carbamoyl)benzo[b]thiophen-5-yl)difluoromethyl)phosphonic acid] | 1000 to 10000 | ≤ 300 |
| CC(=O)N1CC[C@H]2CC[C@@H](C(=O)N3CC(c4cc[nH]c(=O)c4)[C@@H](C#N)C3)N2C(=O)[C@@H](NC(=O)c2cc3cc(C(F)(F)P(=O)(O)O)ccc3s2)C1 (relative stereo) [Compound 145, ((2-(((5S,8S,10aR)-3-acetyl-8-((rel-trans)-3-cyano-4-(2-oxo-1,2-dihydropyridin-4-yl)pyrrolidine-1-carbonyl)-6-oxodecahydropyrrolo[1,2-a][1,5]diazocin-5-yl)carbamoyl)benzo[b]thiophen-5-yl)difluoromethyl)phosphonic acid] | 100 to 1000 | ≤ 300 |
| CC(=O)N1CC[C@H]2CC[C@@H](C(=O)N3CC(c4ccc(=O)[nH]c4)[C@@H](C#N)C3)N2C(=O)[C@@H](NC(=O)c2cc3cc(C(F)(F)P(=O)(O)O)ccc3s2)C1 (relative stereo) [Compound 146, ((2-(((5S,8S,10aR)-3-acetyl-8-((rel-trans)-3-cyano-4-(6-oxo-1,6-dihydropyridin-3-yl)pyrrolidine-1-carbonyl)-6-oxodecahydropyrrolo[1,2-a][1,5]diazocin-5-yl)carbamoyl)benzo[b]thiophen-5-yl)difluoromethyl)phosphonic acid] | 100 to 1000 | 300 to 3000 |
| COc1ccc(C2CN(C(=O)[C@@H]3CC[C@@H]4CCN(C(C)=O)C[C@H](NC(=O)c5cc6cc(C(F)(F)P(=O)(O)O)ccc6s5)C(=O)N43)C[C@@H]2C#N)cn1 (relative stereo) [Compound 147, ((2-(((5S,8S,10aR)-3-acetyl-8-((rel-trans)-3-cyano-4-(6-methoxypyridin-3-yl)pyrrolidine-1-carbonyl)-6-oxodecahydropyrrolo[1,2-a][1,5]diazocin-5-yl)carbamoyl)benzo[b]thiophen-5-yl)difluoromethyl)phosphonic acid] | 100 to 1000 | 300 to 3000 |
